Measured values published in US8993717B2, “Gadd45beta targeting agents” (Imperial Innovations Limited, priority 2009, dated 2015).
Square brackets hold non-standard residues; d marks the D form. Peptide text beside a SMILES is read from it. * marks the point of attachment. Cbz = O=C(OCc1ccccc1)*

Assays:
Gadd45β/MKK7 complex = target: T1, Gadd45β/MKK7 complex (Homo sapiens, UniProt O14733, S271D/T275D); experiment: Surface Plasmon Resonance, preformed Gadd45β/MKK7KD complex; assay type: binding
T1 construct: His6; made in house; host or cells: E. coli (MKK7KD)
T1 sequence (O14733 101-405 isoform O14733-3 S287D/T291D limits assumed): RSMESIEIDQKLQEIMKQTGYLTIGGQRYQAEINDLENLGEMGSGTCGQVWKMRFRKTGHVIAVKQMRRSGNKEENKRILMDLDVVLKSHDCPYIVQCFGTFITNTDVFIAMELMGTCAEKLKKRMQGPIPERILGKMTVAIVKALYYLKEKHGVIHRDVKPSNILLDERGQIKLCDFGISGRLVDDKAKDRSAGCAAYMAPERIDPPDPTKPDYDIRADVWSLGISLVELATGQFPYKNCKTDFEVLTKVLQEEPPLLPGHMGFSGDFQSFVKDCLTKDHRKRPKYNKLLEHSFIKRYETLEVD
Description: (§1) To determine how DTPs bind to the Gadd45 β/MKK7 complex, experiments were performed with a Biacore3000 SPR instrument (GE Healthcare, Milan, Italy), using 4-channels CM5 sensorchips (GE Healthcare, Milan, Italy). Full length human Gadd45β was prepared and purified as described in the reference by Tornatore L., et al. (2008). J Mol Biol; 378:97-111. […] The protein was purified to homogeneity by two subsequent steps of affinity chromatography (Ni-NTA support) and gel filtration (Superdex G75), and then characterized by SDS-PAGE, LC-MS to verify identity and purity, and by Circular Dichroism to assess folding.
(§2) MKK7KD was immobilized on the Biacore sensorchip via classical EDC/NHS coupling chemistry at pH 5 (protein pI, ˜9) at a flow rate of 5 uL/min An immobilization level of about 8000 Response Units was achieved. Gadd45β, which is an intrinsically acidic protein with a pI of about 4.5, was immobilized at pH 3.5 (6000 RU immobilization levels) on a separate channel. The residual reactive groups on both the Gadd45β and MKK7KD channels were finally inactivated by treatment with ethanolamine. On another channel the same procedure of activation with EDC/NHS and inactivation with ethanolamine was performed. […]

[1] = target: T2, kinase domain of MKK7 (MKK7KD) (Homo sapiens, UniProt O14733, S271D/T275D); experiment: Surface Plasmon Resonance, immobilized MKK7KD; assay type: binding; details: 1 nM to 10 μM
T2 construct: His6; made in house; host or cells: E. coli
T2 sequence (O14733 101-405 isoform O14733-3 S287D/T291D): T1 sequence (O14733 101-405 isoform O14733-3 S287D/T291D limits assumed)
Description: as §1, §2

Gadd45β = target: T3, Gadd45β (Homo sapiens, UniProt O75293); experiment: Surface Plasmon Resonance, immobilized Gadd45β; assay type: binding; details: 1 nM to 10 μM
T3 construct: made in house
T3 sequence (O75293 1-160): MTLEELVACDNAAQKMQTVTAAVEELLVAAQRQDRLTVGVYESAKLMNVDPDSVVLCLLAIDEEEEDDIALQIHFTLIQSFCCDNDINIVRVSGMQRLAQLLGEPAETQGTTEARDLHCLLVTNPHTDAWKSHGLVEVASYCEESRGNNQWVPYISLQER
Description: as §1, §2

CaCO2 = CaCO2 assays; assay type: in vitro ADME; details: data not shown
[2] = system: U266, KMS-11, NCI-H929, ARH-77, JJN-3, KMS-12, KMS-18, KMS-27 cells; experiment: [3H]thymidine incorporation assay, panel of 8 sensitive multiple myeloma cell lines; assay type: cell-based, human; details: treatment for 144 hrs; read-out: IC50s ranging over the sensitive multiple myeloma cell lines
Description: Cultures of multiple myeloma cells and treatments with Z-DTPs were carried out as described in Example 8 (see below). The effects of Z-DTPs on the survival/proliferation of multiple myeloma cells were evaluated by the use of [^3H]thymidine) incorporation assays, performed as also described in Example 8. The amount of cell proliferation measured with each of the Z-DTPs' concentrations used and with the untreated cultures (i.e. cultures incubated with medium alone), was expressed as counts per minute (c.p.m.)—which directly correlate with the extent of cell proliferation. All experiments were performed in triplicate.

Solubility = assay type: physicochemical; details: result in words
[3] = system: 22 resistant tumour cell lines; experiment: [3H]thymidine incorporation assay in a panel of 22 resistant tumour cell lines; details: 100 μM, 144 hours
Description: In these latter assays, the effects of Z-DTPs, Ac-DTPs and Z-LTPs on the survival/proliferation of tumour cell lines was investigated by measuring DNA synthesis using standard tritiated thymidine ([^3H]thymidine; [^3H]-TdR) uptake assays. In the analyses shown, cells were incubated for 24, 72, 120 or 144 hrs at 37° C. in the presence or absence of control or bioactive tetrapeptides, as indicated, then subjected to an additional incubation for 18 hrs with [^3H]-TdR (0.037 MBq/well, equivalent to […]). Cells were subsequently harvested onto glass fibre filter mats using a 96-well plate automated cell harvester, after which scintillation fluid was added, and [^3H]thymidine incorporation measured by liquid scintillation spectroscopy on a beta counter. The results are expressed as the percentages of the counts per minute (c.p.m.) (directly correlating with the extent of cell proliferation) measured with tetrapeptide-treated cultures relative to the c.p.m. measured with the corresponding cultures incubated with medium alone (untreated cells). All experiments were performed in triplicate.

For `CC(=O)N[C@H](Cc1ccc(O)cc1)C(=O)N[C@H](CCCNC(=N)N)C(=O)N[C@H](Cc1ccccc1)C(N)=O` [Compound 17, Ac-D-Tyr-D-Arg-D-Phe-NH2] (Ac-[dY]-[dR]-[dF]-NH2), the “effect on preformed Gadd45β/MKK7KD complex” value (Gadd45β/MKK7 complex; injected at 10 nM or 100 nM during dissociation phase) was “induced a rapid dissociation of the Gadd45β/MKK7KD complex”, the “binding to preformed Gadd45β/MKK7KD complex” value (Gadd45β/MKK7 complex; injected at higher concentrations (e.g. 1 μM)) was “dose-response binding and dissociation curves were recorded” and the “binding to MKK7KD in isolation” value [1] was “does not bind”. For the same compound, the “binding to Gadd45β in isolation” value (Gadd45β) was “does not bind”.
With `CC(=O)N[C@H](Cc1ccc(O)cc1)C(=O)N[C@H](CCC(=O)O)C(=O)N[C@H](CCCNC(=N)N)C(=O)N[C@H](Cc1ccccc1)C(N)=O` [DTP2, Acetyl-(D-Tyr)-(D-Glu)-(D-Arg)-(D-Phe)-NH2] (Ac-[dY][dE][dR][dF]-NH2) the cellular permeability (CaCO2) was “low cellular permeability”.
`NC(=O)[C@@H](Cc1ccccc1)NC(=O)[C@@H](Cc1c[nH]cn1)NC(=O)[C@@H](CC(=O)O)NC(=O)[C@@H](Cc1ccc(O)cc1)NC(=O)OCc1ccccc1` [Compound 1, Z-Tyr-Asp-His-Phe-NH2] (Cbz-[dY][dD][dH][dF]-NH2) gave an IC50 [2] of 0.0101 to 4.9 µM.
For `N=C(N)NCCC[C@@H](NC(=O)[C@@H](CCC(=O)O)NC(=O)[C@@H](Cc1ccc(O)cc1)NC(=O)OCc1ccccc1)C(=O)N[C@H](Cc1ccccc1)C(N)=O` [Compound 9, Z-D-Tyr-D-Glu-D-Arg-D-Phe-NH2] (Cbz-[dY][dE][dR][dF]-NH2), the solubility (Solubility) was “high solubility” and the “cytotoxicity in resistant tumour cell lines” value [3] was “no cytotoxicity”.
